The source made the active and inactive calls. The calls are words filed in the database; no cut-off is given here.

One test has as its system KB. The experiment in a line: Cytotoxicity against human KB cells. Format: functional, cell-based.
The test system of the next test is P388. In words: Cytotoxicity against mouse P388 cells. Format: functional, cell-based.

As for `COC(=O)[C@@]12C[C@@H]3C[C@H]([C@H](C)O)[C@@H]1N(CC[C@]1(O)C2=Nc2ccc(OC)cc21)C3`, the outcome in the test on KB and in the test on P388 was inactive.

`COC(=O)[C@@]12C[C@@H]3C[C@H]([C@H](C)O)[C@@H]1N(CC[C@]1(O)C2=Nc2ccccc21)C3`: the result in the test on KB and in the test with P388 was inactive.

Turning to `CC[C@H]1C[C@H]2C[C@@]3(C(=O)OC)c4[nH]c5ccccc5c4CCN(C2=O)[C@@H]13`, the result with KB and in the test on P388 was inactive.

For the compound `CC[C@H]1C[C@@H]2CN3CC[C@]4(O)C(=Nc5ccccc54)[C@](C(=O)OC)(C2)[C@H]13`, the result in the test on KB and in the test with P388 was inactive.

As for `CC[C@H]1C[C@@H]2CN3CC[C@]4(O)C(=Nc5ccc(OC)cc54)[C@](C(=O)OC)(C2)[C@H]13`, the result in the test with KB and in the test on P388 was inactive.

(Values after ChEMBL document CHEMBL1150758, “Heyneanine hydroxyindolenine, a new indole alkaloid from Ervatamia coronaria var. plena” (J Nat Prod, 1988).)
